Reference: patent US11708338B2, “Substituted phenyl sulfonyl phenyl triazole thiones and uses thereof” (Neuropore Therapies, Inc., priority 2017, dated 2023)

System: amyloid beta
Assay: Amyloid beta (6E10) immunostaining in brain of L41 APP transgenic mice
Format: in vivo, mouse
Details: 5 mg/kg daily i.p.
Procedure: As described earlier, Line 41 transgenic mice express high levels of the mutant hAPP751 and develop mature plaques in the cortex, hippocampus, thalamus and olfactory region of mouse brain. The effects of Compound 1 on Amyloid beta plaque formation were assessed in both L41 APP transgenic and non-transgenic mice in a 1 month administration study. After 30 days, the mice were sacrificed, and immunofluorescence (IF) detection of amyloid beta were assessed in the harvested brain tissues.
The harvested brain tissues were drop fixed using 4% PFA and sectioned on a vibratome, and representative sections containing the neuropil of cortex, hippocampus and striatum were assessed for amyloid beta with standard IHC staining.
On approximately day 30, all subjects were euthanized within 2 hours of the last treatment and brain and other samples were collected. Brains were removed and divided sagitally. […]
Prepared slides were imaged at 40× using a high-resolution Hamamatsu Nanozoomer™ scanner located in the Microscopy Core in the UCSD Department of Neurosciences. Digital images were then transferred to Neuropore and analyzed using the Halo® imaging software package (Indica Labs, Corrales, N. Mex.). […] Images were evaluated for specimen and imaging problems and any issues were noted prior to unblinding of samples and statistical analyses.

Question: O=S(=O)(c1ccc(-n2cn[nH]c2=S)cc1)c1ccc(Cl)c(C(F)(F)F)c1 [Compound 1, 4-(4-((4-chloro-3-(trifluoromethyl)phenyl)sulfonyl)phenyl)-2,4-dihydro-3H-1,2,4-triazole-3-thione] was tested. Which “amyloid beta level vs vehicle-treated Line 41 mice, quantification” value did it give?
Answer: Its value is “reduces the amyloid beta level in a statistically significant manner”.
